This note sets out measurements from ChEMBL document CHEMBL5653615 (J Biol Chem, 2013).

Molecules are shown by their SMILES. Active and inactive are the calls of the source. No cut-off for these calls is given here.

The target in assay [1] is T1, Myotonin-protein kinase (Homo sapiens) (UniProt Q09013).
T1 sequence (whole entry): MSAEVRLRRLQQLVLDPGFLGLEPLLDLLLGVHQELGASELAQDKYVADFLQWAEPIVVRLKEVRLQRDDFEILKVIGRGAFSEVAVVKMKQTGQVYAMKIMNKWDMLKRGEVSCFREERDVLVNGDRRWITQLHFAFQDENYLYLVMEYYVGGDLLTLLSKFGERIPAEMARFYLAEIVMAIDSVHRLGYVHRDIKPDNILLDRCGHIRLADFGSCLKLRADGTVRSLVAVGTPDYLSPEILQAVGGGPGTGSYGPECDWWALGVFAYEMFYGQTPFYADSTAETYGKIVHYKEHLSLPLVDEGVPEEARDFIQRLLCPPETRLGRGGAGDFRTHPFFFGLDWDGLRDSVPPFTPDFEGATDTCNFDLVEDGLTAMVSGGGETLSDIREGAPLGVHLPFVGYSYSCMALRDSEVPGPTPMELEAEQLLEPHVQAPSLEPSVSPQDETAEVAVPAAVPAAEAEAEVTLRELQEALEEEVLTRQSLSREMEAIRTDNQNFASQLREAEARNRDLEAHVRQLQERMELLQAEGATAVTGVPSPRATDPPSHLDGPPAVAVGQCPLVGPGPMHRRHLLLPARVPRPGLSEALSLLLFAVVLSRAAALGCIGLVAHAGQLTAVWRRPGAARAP
In words: Inhibition of human DMPK at 18.6 nM by HotSpot assay relative to control.

The target in assay [2] is T2, Serine/threonine-protein kinase D2 (Homo sapiens) (UniProt Q9BZL6).
T2 sequence (whole entry): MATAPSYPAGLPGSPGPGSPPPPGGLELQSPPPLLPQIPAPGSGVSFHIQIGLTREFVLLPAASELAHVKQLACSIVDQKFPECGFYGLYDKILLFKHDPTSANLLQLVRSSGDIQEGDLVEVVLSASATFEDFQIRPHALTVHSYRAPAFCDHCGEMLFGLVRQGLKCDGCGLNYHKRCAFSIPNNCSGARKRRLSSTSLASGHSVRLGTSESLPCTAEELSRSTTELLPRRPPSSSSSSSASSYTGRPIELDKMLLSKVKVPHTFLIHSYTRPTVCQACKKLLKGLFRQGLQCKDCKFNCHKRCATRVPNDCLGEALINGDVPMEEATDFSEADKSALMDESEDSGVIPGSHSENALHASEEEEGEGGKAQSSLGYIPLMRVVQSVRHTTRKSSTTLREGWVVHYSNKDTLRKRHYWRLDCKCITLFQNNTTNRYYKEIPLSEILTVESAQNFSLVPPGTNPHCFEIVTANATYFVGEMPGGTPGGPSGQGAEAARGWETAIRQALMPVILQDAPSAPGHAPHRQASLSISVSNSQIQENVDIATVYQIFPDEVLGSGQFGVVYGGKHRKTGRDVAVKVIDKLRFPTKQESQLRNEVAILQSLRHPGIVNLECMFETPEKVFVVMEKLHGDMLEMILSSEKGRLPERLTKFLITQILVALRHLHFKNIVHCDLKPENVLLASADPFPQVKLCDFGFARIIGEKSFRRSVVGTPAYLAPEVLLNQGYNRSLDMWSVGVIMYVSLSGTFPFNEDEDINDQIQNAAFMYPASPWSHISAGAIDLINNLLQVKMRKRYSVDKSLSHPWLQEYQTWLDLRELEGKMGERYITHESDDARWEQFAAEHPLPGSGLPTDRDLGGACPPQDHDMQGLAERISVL
Put plainly: Inhibition of human PRKD2 at 18.6 nM by HotSpot assay relative to control.

For assay [3], the system named is CHO-K1. In words: Inhibition of Insulin receptor M1153L mutant (unknown origin) transfected in CHO-K1 cell lysate at 10 uM for 30 mins on ice followed by insulin stimulation for 10 mins by Western blot analysis. Type of assay: subcellular. The settings on record: Homo sapiens, time 40.0 min.
Assay [4] concerns the target Ribosomal protein S6 kinase beta-2 (Homo sapiens) (UniProt Q9UBS0). Put plainly: Inhibition of human RPS6KB2 at 1.82 nM by HotSpot assay relative to control.
Assay [5] deals with Vascular endothelial growth factor receptor 2 (Homo sapiens) (UniProt P35968). In words: Inhibition of human KDR at 1.82 nM by HotSpot assay relative to control.
Vascular endothelial growth factor receptor 2 (Homo sapiens), sequence (P35968 whole entry): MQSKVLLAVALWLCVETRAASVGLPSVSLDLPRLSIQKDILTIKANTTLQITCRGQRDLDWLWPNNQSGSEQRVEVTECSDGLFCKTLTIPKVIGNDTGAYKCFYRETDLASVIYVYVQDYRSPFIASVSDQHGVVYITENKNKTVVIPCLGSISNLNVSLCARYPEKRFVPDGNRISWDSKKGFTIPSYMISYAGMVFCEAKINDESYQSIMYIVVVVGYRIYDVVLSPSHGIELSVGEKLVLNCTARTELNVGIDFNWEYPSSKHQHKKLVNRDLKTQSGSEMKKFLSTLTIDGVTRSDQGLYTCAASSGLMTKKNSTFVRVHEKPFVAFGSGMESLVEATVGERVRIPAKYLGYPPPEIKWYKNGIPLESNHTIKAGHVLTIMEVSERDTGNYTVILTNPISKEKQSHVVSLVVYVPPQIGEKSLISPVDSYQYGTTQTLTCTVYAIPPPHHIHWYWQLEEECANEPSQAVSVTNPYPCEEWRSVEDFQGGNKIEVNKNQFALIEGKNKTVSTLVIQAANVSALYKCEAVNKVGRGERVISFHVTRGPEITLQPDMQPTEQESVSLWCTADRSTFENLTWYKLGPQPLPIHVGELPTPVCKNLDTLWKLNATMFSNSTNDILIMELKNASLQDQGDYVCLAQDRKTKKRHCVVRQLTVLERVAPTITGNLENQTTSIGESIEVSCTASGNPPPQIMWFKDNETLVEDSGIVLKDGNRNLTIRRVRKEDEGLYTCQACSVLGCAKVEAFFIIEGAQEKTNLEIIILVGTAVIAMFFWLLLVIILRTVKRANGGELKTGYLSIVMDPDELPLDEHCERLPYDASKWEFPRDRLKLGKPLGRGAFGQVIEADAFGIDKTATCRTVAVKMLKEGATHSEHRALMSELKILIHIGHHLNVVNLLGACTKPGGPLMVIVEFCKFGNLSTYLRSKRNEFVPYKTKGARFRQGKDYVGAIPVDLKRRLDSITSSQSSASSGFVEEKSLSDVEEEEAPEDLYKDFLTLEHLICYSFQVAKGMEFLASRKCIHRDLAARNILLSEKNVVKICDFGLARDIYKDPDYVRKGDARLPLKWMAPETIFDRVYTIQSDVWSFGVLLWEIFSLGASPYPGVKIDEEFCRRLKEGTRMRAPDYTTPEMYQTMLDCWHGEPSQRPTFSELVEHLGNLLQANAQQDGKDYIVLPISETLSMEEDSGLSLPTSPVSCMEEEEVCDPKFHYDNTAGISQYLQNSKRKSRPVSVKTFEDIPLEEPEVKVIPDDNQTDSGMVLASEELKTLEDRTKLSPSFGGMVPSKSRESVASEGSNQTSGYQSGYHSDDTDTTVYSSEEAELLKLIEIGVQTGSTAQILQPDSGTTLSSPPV
The target in assay [6] is T3, Serine/threonine-protein kinase NLK (Homo sapiens) (UniProt Q9UBE8).
T3 sequence (whole entry): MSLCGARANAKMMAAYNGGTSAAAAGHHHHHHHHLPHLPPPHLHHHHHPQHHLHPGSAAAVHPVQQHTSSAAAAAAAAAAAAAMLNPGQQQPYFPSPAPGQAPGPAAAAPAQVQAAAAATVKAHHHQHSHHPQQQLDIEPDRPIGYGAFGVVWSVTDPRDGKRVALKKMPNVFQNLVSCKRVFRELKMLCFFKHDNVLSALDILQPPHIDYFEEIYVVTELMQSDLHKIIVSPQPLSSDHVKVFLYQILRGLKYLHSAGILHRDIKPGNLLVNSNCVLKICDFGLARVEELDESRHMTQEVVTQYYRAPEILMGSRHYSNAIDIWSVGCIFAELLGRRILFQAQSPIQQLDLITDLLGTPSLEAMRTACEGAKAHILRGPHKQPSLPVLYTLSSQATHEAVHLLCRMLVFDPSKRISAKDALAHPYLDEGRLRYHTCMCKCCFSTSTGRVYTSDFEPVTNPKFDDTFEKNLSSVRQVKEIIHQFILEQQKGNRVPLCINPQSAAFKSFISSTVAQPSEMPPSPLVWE
In words: Inhibition of human NLK at 1.82 nM by HotSpot assay relative to control.

The target of assay [7] is T4, Serine/threonine-protein kinase 3 (Homo sapiens) (UniProt Q13188).
T4 sequence (whole entry): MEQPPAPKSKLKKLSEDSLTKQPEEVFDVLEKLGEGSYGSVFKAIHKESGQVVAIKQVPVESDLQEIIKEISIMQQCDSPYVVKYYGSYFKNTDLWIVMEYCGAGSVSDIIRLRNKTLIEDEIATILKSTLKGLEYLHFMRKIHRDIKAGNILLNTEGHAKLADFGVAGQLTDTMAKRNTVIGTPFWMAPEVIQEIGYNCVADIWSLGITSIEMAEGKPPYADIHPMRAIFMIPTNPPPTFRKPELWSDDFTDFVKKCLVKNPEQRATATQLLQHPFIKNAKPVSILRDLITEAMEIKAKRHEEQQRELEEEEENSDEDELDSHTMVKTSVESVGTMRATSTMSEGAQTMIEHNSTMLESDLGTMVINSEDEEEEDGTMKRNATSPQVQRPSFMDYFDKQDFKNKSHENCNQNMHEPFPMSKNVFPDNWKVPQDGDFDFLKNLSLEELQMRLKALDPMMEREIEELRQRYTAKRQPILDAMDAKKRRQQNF
Put plainly: Inhibition of human STK3 at 1.82 nM by HotSpot assay relative to control.

Ribosomal protein S6 kinase beta-2 (Homo sapiens), sequence (Q9UBS0 whole entry): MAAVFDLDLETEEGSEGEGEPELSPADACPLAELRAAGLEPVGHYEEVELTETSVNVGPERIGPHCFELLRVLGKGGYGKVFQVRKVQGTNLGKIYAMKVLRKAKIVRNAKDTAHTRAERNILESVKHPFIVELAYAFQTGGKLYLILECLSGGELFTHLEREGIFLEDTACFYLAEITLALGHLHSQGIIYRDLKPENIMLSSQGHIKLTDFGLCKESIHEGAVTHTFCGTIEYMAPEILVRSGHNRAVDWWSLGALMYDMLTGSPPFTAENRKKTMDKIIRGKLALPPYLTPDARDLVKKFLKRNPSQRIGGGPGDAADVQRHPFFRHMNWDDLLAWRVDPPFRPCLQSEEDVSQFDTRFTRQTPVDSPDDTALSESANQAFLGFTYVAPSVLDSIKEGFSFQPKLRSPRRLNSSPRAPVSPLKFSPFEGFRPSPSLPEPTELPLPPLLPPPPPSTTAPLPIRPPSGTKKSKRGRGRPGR

As for `C[C@]1(O)C[C@@H](c2nc(-c3ccc4ccc(-c5ccccc5)nc4c3)c3c(N)nccn32)C1`, the inhibition in assay [1] is -3.25%; in assay [2], 7.59%.
With `Oc1n[nH]c2nnc(-c3c(-c4ccccc4)nn4ccccc34)cc12`, the inhibition result in assay [3] is “inactive”.
In the case of `C[C@@]1(C(=O)Nc2ccc(F)nc2)CCCN1c1nc(Nc2cc(C3CC3)n[nH]2)c2cccn2n1`, the inhibition in assay [4] was -0.77%; in assay [5], 3.67%; in assay [6], 2.48%; in assay [7], 1.56%.
